From article PMC10126264, “Synergistic effect and antibiofilm activity of the antimicrobial peptide K11 with conventional antibiotics against multidrug-resistant and extensively drug-resistant Klebsiella pneumoniae” (Frontiers in Cellular and Infection Microbiology, 2023)
Values after ≈ are worked out from the molar mass of the structure shown. Residues, ends and D or L forms follow the SMILES beside them.

Legend:
[1] = tested on: MDR/XDR K. pneumoniae clinical isolates; experiment: microbe, parasite or virus in culture; conditions: for MIC: broth microdilution in CAMHB, 20-24 h at 37°C; for MBC: wells with no visible growth plated on MHA, 37°C, kills at least 99.9% of inoculum
Method: (§1) The ability of K11 to inhibit bacterial growth was determined by the broth microdilution method ([Clinical and Laboratory Standards Institute, 2018]). Briefly, a series of 2-fold dilutions of K11 were prepared from 1,024 to 2 µg/mL in cation-adjusted Mueller-Hinton broth (CAMHB), Then 50 µL of each peptide dilution was added to each well of polystyrene 96-well U-bottom microplates. The log-phase cultures were adjusted to 0.5 McFarland standard and diluted 1:100 in CAMHB to provide the density of 10^6 CFU/mL. Consequently, 50 µL of diluted bacterial suspension was added to wells containing 50 µL of peptide solution, followed by incubation for 20-24 h at 37°C. […] To evaluate MBC, a volume of 10 μL was taken from each well with no visible growth, inoculated on Mueller-Hinton agar (MHA) plates, and incubated at 37°C. The MBC was defined as the lowest concentration of antimicrobials that killed at least 99.9% of the initial inoculums ([Clinical and Laboratory Standards Institute, 1999]).

[2] = tested on: K. pneumoniae ATCC BAA-1706
Method: as §1

[3] = murine excision model; ref Rishi et al., 2018; cited from earlier work
Source text: The pH and thermal stability of AMPs are essential for their preparation, processing, and storage ([Zong et al., 2016]). At the same time, the stability of AMPs in serum and under physiological salt conditions is also crucial when administrating AMPs in vivo ([Rodríguez et al., 2021]).

[4] = MDR/XDR K. pneumoniae clinical isolates
[5] = broth microdilution in CAMHB, 20-24 h at 37°C
[6] = wells with no visible growth plated on MHA, 37°C, kills at least 99.9% of inoculum

`CC[C@H](C)[C@H](NC(=O)[C@H](Cc1ccccc1)NC(=O)[C@H](CO)NC(=O)[C@H](CCCCN)NC(=O)[C@H](Cc1c[nH]c2ccccc12)NC(=O)[C@@H](N)CCCCN)C(=O)N[C@@H](CCCCN)C(=O)N[C@@H](CCCCN)C(=O)N[C@@H](CC(C)C)C(=O)N[C@H](C(=O)N[C@@H](CCCCN)C(=O)N[C@@H](CCCCN)C(=O)N[C@@H](Cc1ccccc1)C(=O)N[C@@H](CC(C)C)C(=O)N[C@@H](Cc1c[nH]cn1)C(=O)N[C@@H](CO)C(=O)N[C@@H](C)C(=O)N[C@@H](CCCCN)C(=O)N[C@@H](CCCCN)C(=O)N[C@@H](Cc1ccccc1)C(N)=O)[C@@H](C)O` [K11] (H-KWKSFIKKLTKKFLHSAKKF-NH2) showed an MIC ([1]; KP-01) of 8 µg/mL (≈ 3.21 µM), an MBC ([1]; KP-01) of 8 µg/mL (≈ 3.21 µM) and an MIC ([1]; KP-02) of 64 µg/mL (≈ 25.7 µM). The MBC ([1]; KP-02) was 64 µg/mL (≈ 25.7 µM), the MIC ([1]; KP-03) was 16 µg/mL (≈ 6.42 µM) and the MBC ([1]; KP-03) was 16 µg/mL (≈ 6.42 µM). The MIC ([1]; KP-04) was 64 µg/mL (≈ 25.7 µM), the MBC ([1]; KP-04) was 128 µg/mL (≈ 51.3 µM) and the MIC ([1]; KP-05) was 8 µg/mL (≈ 3.21 µM). The MBC ([1]; KP-05) was 8 µg/mL (≈ 3.21 µM), the MIC ([1]; KP-06) was 64 µg/mL (≈ 25.7 µM) and the MBC ([1]; KP-06) was 128 µg/mL (≈ 51.3 µM). For the same compound, the MIC ([1]; KP-07) was 16 µg/mL (≈ 6.42 µM), the MBC ([1]; KP-07) was 16 µg/mL (≈ 6.42 µM) and the MIC ([1]; KP-08) was 64 µg/mL (≈ 25.7 µM). It also gave an MBC ([1]; KP-08) of 128 µg/mL (≈ 51.3 µM), an MIC ([1]; KP-09) of 64 µg/mL (≈ 25.7 µM) and an MBC ([1]; KP-09) of 128 µg/mL (≈ 51.3 µM). It also gave an MIC ([1]; KP-10) of 64 µg/mL (≈ 25.7 µM), an MBC ([1]; KP-10) of 128 µg/mL (≈ 51.3 µM) and an MIC ([1]; KP-11) of 64 µg/mL (≈ 25.7 µM). The MBC ([1]; KP-11) was 64 µg/mL (≈ 25.7 µM), the MIC ([1]; KP-12) was 64 µg/mL (≈ 25.7 µM) and the MBC ([1]; KP-12) was 64 µg/mL (≈ 25.7 µM). It also gave an MIC ([1]; KP-13) of 32 µg/mL (≈ 12.8 µM), an MBC ([1]; KP-13) of 32 µg/mL (≈ 12.8 µM) and an MIC ([1]; KP-14) of 256 µg/mL (≈ 103 µM). It also gave an MBC ([1]; KP-14) of 256 µg/mL (≈ 103 µM), an MIC ([1]; KP-15) of 512 µg/mL (≈ 205 µM) and an MBC ([1]; KP-15) of 512 µg/mL (≈ 205 µM). The MIC50 [1, 4] was 64 µg/mL (≈ 25.7 µM), the MIC90 [1, 4] was 256 µg/mL (≈ 103 µM) and the MIC [2, 5] was 2 µg/mL (≈ 0.802 µM). The MBC [2, 6] was 2 µg/mL (≈ 0.802 µM), the MIC (K. pneumoniae ATCC 70063; [5]) was 4 µg/mL (≈ 1.6 µM) and the MBC (K. pneumoniae ATCC 70063; [6]) was 4 µg/mL (≈ 1.6 µM). For the same compound, the cytotoxicity [3] was “no cytotoxicity”.
